Measurements as given in patent US7855309B2, “Pesticide benzyloxy- and phenetyl-substituted phenyl-amidine derivatives” (Bayer CropScience AG, priority 2005, dated 2010).
Like-named read-outs stand apart in the source and are kept apart here.

Test: logP by HPLC on reversed-phase column (EEC Directive 79/831 Annex V.A8)
Type: physicochemical
Conditions: for chromatographic logP: reversed-phase HPLC column (C18)
Description: Temperature: 40° C.; Mobile phases: 0.1% aqueous formic acid and acetonitrile; linear gradient from 10% acetonitrile to 90% acetonitrile.
Calibration was carried out using unbranched alkan-2-ones (comprising 3 to 16 carbon atoms) with known logP values (determination of the logP values by the retention times using linear interpolation between two successive alkanones).

[1] = HPLC, C18, 40° C., 0.1% aqueous formic acid and acetonitrile
[2] = pH 2.3, read-out: log P (pH 2.3)

With CCN(C)C=Nc1cc(C)c(OCc2cccc(C)c2Cl)cc1C [Compound 71] the “log P” value [1] was 2.29.
With CCN(C)C=Nc1cc(C)c(OCc2ccccc2C)cc1C [Compound 66] the “log P” value [1] was 2.06.
With Cc1cc(OCc2ccc(Cl)cc2C(F)(F)F)c(C)cc1N=CN1CCCCC1 [Compound 116] the “log P” value [1] was 2.55.
For CCN(C)C=Nc1cc(C)c(OCc2cccc(OC(F)(F)F)c2)cc1C [Compound 17], the “log P” value [1] was 2.33.
For Cc1cc(C)cc(COc2cc(C)c(N=CN3CCCCC3)cc2C)c1 [Compound 99], the “log P” value [1] was 2.42.
With CCN(C)C=Nc1cc(C)c(CCc2cccc(Cl)c2)cc1C [Compound 36] the “log P” value [1] was 2.2.
In the case of CCN(C)C=Nc1cc(C)c(OCc2cccc(C#N)c2)cc1C [Compound 74], the “log P” value [1] is reported as 1.83.
For Cc1cc(OCc2ccccc2SC(F)(F)F)c(C)cc1N=CN1CCCCC1 [Compound 112], the “log P” value [1] was 2.48.
For CON=Cc1ccc(COc2cc(C)c(N=CN3CCCCC3)cc2C)cc1 [Compound 103], the “log P” value [1] was 2.21.
With CCN(C)C=Nc1cc(C)c(OCc2cccc(F)c2)cc1C [Compound 80] the “log P” value [1] was 1.99.
With Cc1cc(OCc2ccc(SC(F)(F)F)cc2)c(C)cc1N=CN1CCCCC1 [Compound 115] the “log P” value [1] was 2.55.
For CCN(C)C=Nc1cc(C)c(OCc2ccc(F)c(F)c2)cc1C [Compound 15], the “log P” value [1] was 2.02.
For CCN(C)C=Nc1cc(C)c(OCc2cc(C)cc(C)c2)cc1C [Compound 60], the “log P” value [1] was 2.26.
For Cc1cc(OCc2ccc(Cl)c(C(F)(F)F)c2)c(C)cc1N=CN1CCCCC1 [Compound 129], the “log P” value [1] was 2.51.
With Cc1cc(OCc2ccc(F)cc2)c(C)cc1N=CN1CCCCC1 [Compound 104] the “log P” value [1] was 2.09.
For CCN(C)C=Nc1cc(C)c(OCc2cc(OC)c(OC)cc2Cl)cc1C [Compound 63], the “log P” value [1] was 1.99.
With Cc1cc(OC(C)c2cccc(Cl)c2)c(C)cc1N=CN1CCCCC1 (racemic) [Compound 131] the “log P” value [1] was 2.36.
In the case of Cc1ccc(C)c(COc2cc(C)c(N=CN3CCCCC3)cc2C)c1 [Compound 91], the “log P” value [1] is reported as 2.33.
For Cc1cc(OCc2ccc(OC(F)(F)F)cc2)c(C)cc1N=CN1CCCCC1 [Compound 122], the “log P” value [1] was 2.42.
For COc1cc(Cl)c(COc2cc(C)c(N=CN3CCCCC3)cc2C)cc1OC [Compound 102], the “log P” value [1] was 2.09.
In the case of CCN(C)C=Nc1cc(C)c(OCc2ccc3nsnc3c2)cc1C [Compound 27], the “log P” value [1] is reported as 1.86.
For CCN(C)C=Nc1cc(C)c(OCc2ccc(C)cc2)cc1C [Compound 32], the “log P” value [1] was 2.1.
In the case of Cc1cc(OCc2cccc(C#N)c2)c(C)cc1N=CN1CCCCC1 [Compound 120], the “log P” value [1] is reported as 1.9.
For CCN(C)C=Nc1cc(C)c(OCc2cccc(OC)c2)cc1C [Compound 81], the “log P” value [1] was 1.97.
In the case of CCN(C)C=Nc1cc(C)c(CCc2ccc(C(F)(F)F)cc2)cc1C [Compound 46], the “log P” value [1] is reported as 2.45.
For CCN(C)C=Nc1cc(C)c(OCc2ccccc2I)cc1C [Compound 87], the “log P” value [1] was 2.29.
With Cc1cc(OCc2ccc3nsnc3c2)c(C)cc1N=CN1CCCCC1 [Compound 128] the “log P” value [1] was 1.99.
With CCN(C)C=Nc1cc(C)c(OCc2ccccc2Br)cc1C [Compound 67] the “log P” value [1] was 2.13.
For CCN(C)C=Nc1cc(C)c(OCc2ccc(Cl)c(C(F)(F)F)c2)cc1C [Compound 28], the “log P” value [1] was 2.47.
With Cc1cc(OC(C)c2ccc(F)cc2)c(C)cc1N=CN1CCCCC1 (racemic) [Compound 93] the “log P” value [1] was 2.18.
For CCN(C)C=Nc1cc(C)c(CCc2ccccc2C(F)(F)F)cc1C [Compound 45], the “log P” value [1] was 2.42.
With C=Cc1cccc(COc2cc(C)c(N=CN(C)CC)cc2C)c1 [Compound 50] the “log P” value [1] was 2.16.
In the case of Cc1cc(OCc2cccc(Cl)c2)c(C)cc1N=CN1CCCCC1 [Compound 94], the “log P” value [1] is reported as 2.21.
In the case of CCN(C)C=Nc1cc(C)c(OCc2cccc(C=NOC)c2)cc1C [Compound 12], the “log P” value [1] is reported as 2.07.
For CCN(C)C=Nc1cc(C)c(CCc2ccccc2C)cc1C [Compound 38], the “log P” value [1] was 2.38.
For CCN(C)C=Nc1cc(C)c(OCc2ccc(Br)cc2)cc1C [Compound 70], the “log P” value [1] was 2.21.
In the case of Cc1cc(OCc2c(F)cccc2Cl)c(C)cc1N=CN1CCCCC1 [Compound 101], the “log P” value [1] is reported as 2.16.
In the case of Cc1cc(OCc2cccc(C(F)(F)F)c2)c(C)cc1N=CN1CCCCC1 [Compound 96], the “log P” value [1] is reported as 2.29.
In the case of Cc1cc(OCc2ccc(C(F)(F)F)cc2)c(C)cc1N=CN1CCCCC1 [Compound 126], the “log P” value [1] is reported as 2.58.
In the case of CCN(C)C=Nc1cc(C)c(OCc2ccc(Cl)cc2Cl)cc1C [Compound 55], the “log P” value [1] is reported as 2.33.
With CCN(C)C=Nc1cc(C)c(OCc2cccc(I)c2)cc1C [Compound 85] the “log P” value [1] was 2.42.
In the case of CCN(C)C=Nc1cc(C)c(OCc2ccccc2C#N)cc1C [Compound 58], the “log P” value [1] is reported as 1.78.
For CCN(C)C=Nc1cc(C)c(OCc2ccc3ccccc3c2)cc1C [Compound 62], the “log P” value [1] was 2.29.
With Cc1cc(OC(C)c2ccc(Cl)cc2)c(C)cc1N=CN1CCCCC1 (racemic) [Compound 132] the “log P” value [1] was 2.36.
With CCN(C)C=Nc1cc(C)c(OCc2cc(F)ccc2F)cc1C [Compound 59] the “log P” value [1] was 1.99.
For Cc1cc(OCc2cc(Cl)cc(Cl)c2)c(C)cc1N=CN1CCCCC1 [Compound 90], the “log P” value [1] was 2.51.
For Cc1cc(OCc2ccccc2F)c(C)cc1N=CN1CCCCC1 [Compound 100], the “log P” value [1] was 2.09.
For Cc1cc(OCc2ccccc2C(F)(F)F)c(C)cc1N=CN1CCCCC1 [Compound 123], the “log P” value [1] was 2.29.
For CCN(C)C=Nc1cc(C)c(OCc2ccc(OC)cc2)cc1C [Compound 78], the “log P” value [1] was 1.92.
For CCN(C)C=Nc1cc(C)c(OCc2ccccc2Cl)cc1C [Compound 33], the “log P” value [1] was 2.08.
In the case of Cc1cc(OCc2ccc(C#N)cc2)c(C)cc1N=CN1CCCCC1 [Compound 98], the “log P” value [1] is reported as 1.94.
In the case of CCN(C)C=Nc1cc(C)c(OCc2ccc(SC(F)(F)F)cc2)cc1C [Compound 83], the “log P” value [1] is reported as 2.61.
For Cc1cc(OCc2cc(F)ccc2F)c(C)cc1N=CN1CCCCC1 [Compound 97], the “log P” value [1] was 2.09.
With CCN(C)C=Nc1cc(C)c(OCc2cc3c(cc2Cl)OCO3)cc1C [Compound 5] the “log P” value [1] was 2.05.
For CCN(C)/C=N/c1cc(C)c(/C=C/c2ccccc2F)cc1C (racemic) [Intermediate (VII-1)], the chromatographic logP [2] was 2.11.
With CCN(C)C=Nc1cc(C)c(OCc2ccc(C(C)C)cc2)cc1C [Compound 82] the “log P” value [1] was 2.51.
For CCN(C)C=Nc1cc(C)c(OCc2ccccc2OC(F)F)cc1C [Compound 26], the “log P” value [1] was 2.03.
For CCN(C)C=Nc1cc(C)c(OCc2cccc(C(=O)OC(C)(C)C)c2)cc1C [Compound 54], the “log P” value [1] was 2.42.
In the case of CCN(C)C=Nc1cc(C)c(OCc2ccccc2F)cc1C [Compound 11], the “log P” value [1] is reported as 1.94.
In the case of CCN(C)C=Nc1cc(C)c(OCc2ccc(F)c(OC)c2)cc1C [Compound 22], the “log P” value [1] is reported as 1.92.
With CCN(C)C=Nc1cc(C)c(OCc2ccc3c(c2)CCCC3)cc1C [Compound 75] the “log P” value [1] was 2.55.
For Cc1cc(OCc2ccccc2Cl)c(C)cc1N=CN1CCCCC1 [Compound 106], the “log P” value [1] was 2.18.
With CCN(C)C=Nc1cc(C)c(OCc2ccc(OCc3ccccc3)cc2)cc1C [Compound 79] the “log P” value [1] was 2.51.
With Cc1cc(OCc2cc3c(cc2Cl)OCO3)c(C)cc1N=CN1CCCCC1 [Compound 92] the “log P” value [1] was 2.16.
In the case of CCN(C)C=Nc1cc(C)c(CCc2ccc(Cl)cc2)cc1C [Compound 40], the “log P” value [1] is reported as 2.27.
With Cc1cc(OCc2cc(C(F)(F)F)ccc2Cl)c(C)cc1N=CN1CCCCC1 [Compound 119] the “log P” value [1] was 2.58.
With CCN(C)C=Nc1cc(C)c(OCc2ccc(OC(F)F)cc2)cc1C [Compound 24] the “log P” value [1] was 2.06.
In the case of CCN(C)C=Nc1cc(C)c(CCc2ccc(F)cc2)cc1C [Compound 42], the “log P” value [1] is reported as 2.05.
For Cc1cc(OCc2ccc(Cl)cc2)c(C)cc1N=CN1CCCCC1 [Compound 105], the “log P” value [1] was 2.26.
For CCN(C)C=Nc1cc(C)c(OCc2ccccc2C(F)(F)F)cc1C [Compound 34], the “log P” value [1] was 2.14.
With CCN(C)/C=N/c1cc(C)c(I)cc1C [Intermediate (V-1), N′-(4-iodo-2,5-dimethylphenyl)-N-ethyl-N-methylimidoformamide] the chromatographic logP [2] was 1.21.
With CCN(C)C=Nc1cc(C)c(OCc2cccc3ccccc23)cc1C [Compound 76] the “log P” value [1] was 2.45.
With Cc1cc(OCc2ccc(F)c(F)c2)c(C)cc1N=CN1CCCCC1 [Compound 110] the “log P” value [1] was 2.13.
For Cc1ccc(COc2cc(C)c(N=CN3CCCCC3)cc2C)cc1 [Compound 124], the “log P” value [1] was 2.23.
With Cc1cc(OCc2ccccc2OC(F)F)c(C)cc1N=CN1CCCCC1 [Compound 127] the “log P” value [1] was 2.13.
For Cc1ccc(COc2cc(C)c(N=CN3CCCCC3)cc2C)cc1C [Compound 108], the “log P” value [1] was 2.36.
In the case of Cc1cc(OCc2cc(Cl)cc(C(F)(F)F)c2)c(C)cc1N=CN1CCCCC1 [Compound 118], the “log P” value [1] is reported as 2.61.
CCN(C)/C=N/c1cc(C)c(CCc2ccccc2F)cc1C [Compound 44, N-ethyl-N′-{4-[2-(2-fluorophenyl)ethyl]-2,5-dimethylphenyl}-N-methylimidoformamide] showed a chromatographic logP [2] of 2.23 and a chromatographic logP (HPLC, C18, 40° C., 0.1% aqueous formic acid and acetonitrile, read-out: log P) of 2.23.
For CCN(C)C=Nc1cc(C)c(OCc2c(F)cccc2F)cc1C [Compound 48], the “log P” value [1] was 1.94.
For CCN(C)C=Nc1cc(C)c(OCc2cccc(C)c2F)cc1C [Compound 77], the “log P” value [1] was 2.16.
With CCN(C)C=Nc1cc(C)c(OCc2ccc(OC(F)(F)F)cc2)cc1C [Compound 23] the “log P” value [1] was 2.38.
In the case of CCN(C)C=Nc1cc(C)c(OCc2ccc(C(=O)OC)cc2)cc1C [Compound 53], the “log P” value [1] is reported as 1.9.
With CCN(C)C=Nc1cc(C)c(OCc2c(C)cc(C)cc2C)cc1C [Compound 86] the “log P” value [1] was 2.42.
With Cc1cc(OCc2ccc(C(C)(C)C)cc2)c(C)cc1N=CN1CCCCC1 [Compound 95] the “log P” value [1] was 2.64.
With CCN(C)C=Nc1cc(C)c(CCc2ccc(C)cc2)cc1C [Compound 41] the “log P” value [1] was 2.23.
In the case of CCN(C)C=Nc1cc(C)c(OCc2cccc3nsnc23)cc1C [Compound 51], the “log P” value [1] is reported as 1.92.
With Cc1cc(OCc2ccc(C(F)(F)F)cc2)c(C)cc1N=CN1CCCCC1 [Compound 109] the “log P” value [1] was 2.33.
